Results: PMC10587737, “Dracorhodin targeting CMPK2 attenuates inflammation: A novel approach to sepsis therapy” (Clinical and Translational Medicine, 2023)
Where a chain is given by its changes, count along the chain named.

Assays:
CMPK2 = target: T1, CMPK2 (Homo sapiens, UniProt Q5EBM0); experiment: CMPK2 kinase activity assay (ADP-GLO); type: biochemical
T1 sequence (Q5EBM0 22-449): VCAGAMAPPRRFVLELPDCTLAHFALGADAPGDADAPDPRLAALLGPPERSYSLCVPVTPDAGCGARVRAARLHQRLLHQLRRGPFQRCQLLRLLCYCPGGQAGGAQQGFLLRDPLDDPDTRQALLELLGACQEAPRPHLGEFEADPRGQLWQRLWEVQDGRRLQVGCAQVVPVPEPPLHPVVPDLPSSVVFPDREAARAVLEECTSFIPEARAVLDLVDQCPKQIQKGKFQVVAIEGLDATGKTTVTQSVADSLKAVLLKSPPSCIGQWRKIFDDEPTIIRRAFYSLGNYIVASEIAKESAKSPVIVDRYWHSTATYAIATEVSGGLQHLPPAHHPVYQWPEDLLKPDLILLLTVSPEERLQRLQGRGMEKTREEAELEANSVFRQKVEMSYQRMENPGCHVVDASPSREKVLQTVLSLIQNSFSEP
Protocol: The range of concentrations used to investigate the effect of small‐molecule ligands on CMPK2 activity was 0.1–150 μM. Each data point contains three biological replicates.

CMPK2^Lys265 protein = target: T2, CMPK2^Lys265 protein (Homo sapiens, UniProt Q5EBM0, K265A); experiment: MST binding to CMPK2 Lys265 mutant; settings: Lys265 mutated
T2 construct: the N‐terminus was truncated by 22 amino acids; 6xHis (C); made in house; host or cells: FreeStyle 293-F cells (pTT5 vector)
T2 sequence (Q5EBM0 22-449 K265A): T1 sequence (Q5EBM0 22-449) with K244A
Protocol: (§1) Human CMPK2 and K265, K282 and K320 mutated CMPK2 cDNA were cloned and inserted into the pTT5 vector, and the constructed plasmid was amplified by the DH5α strain. The C‐terminus of the cDNA was fused with a 6× His tag, and the N‐terminus was truncated by 22 amino acids (Figure 1B–F and Supporting Information Figure S5A,B). When the free‐style 293‐F cells reached the proper density, approximately 1 mg of expression plasmid was premixed with 3 mg polyethylenimine in UltraFectin medium and incubated prior to transfection. This mixture was then added to the appropriate amount of fresh cell culture medium, incubated for 30 min and collected after 48 h.
(§2) The MST assay is an emerging technique used to quantitatively elucidate binding. The binding parameter between CMPK2 and DP was measured using MST on a Monolith NT.115 system (Germany). CMPK2 was fluorescently labeled with the Monolith NT Protein Labeling Kit RED (L018, NanoTemper Technologies GmbH, Munich, Germany) according to the manufacturer’s instructions. The Monolith NT.115 system was used with Monolith NT.115 standard capillaries (M0-K022). MST assay buffer was used to dilute the labeled CMPK2 to 2 μM. […] The binding and dissociation constants (Kd) were evaluated and calculated using M0-Affinity analysis software version 2.1.3 (Nano Temper Technologies) for the ligand.

CMPK2^Lys320 protein = experiment: MST binding to CMPK2 Lys320 mutant; parameters: species or system human; settings: Lys320 mutated
Protocol: as §1, §2

BMDMs = experiment: Mitochondrial membrane potential (JC-1) and mtROS (MitoSOX); type: cell-based, mouse; settings: DP 12 h, LPS priming, ATP
Protocol: The treated bone marrow‐derived macrophages (BMDMs) and JC‐1 working solution were incubated in a cell incubator for 30 min. At the end of the warm incubation, the cells were washed three times with PBS, and images were captured with a Harmony 4.8 (PerkinElmer). Meanwhile, the stained BMDMs were quantified by flow cytometry.
For mitochondrial ROS (mtROS) measurement, according to the instruction guidelines, a diluted 5 μM MitoSOX working solution was incubated with treated BMDMs in a cell incubator for 10 min according to the instructional guidelines. The BMDMs were gently washed with warm buffer to remove the working solution. The images were captured using Harmony 4.8 (PerkinElmer). Meanwhile, the stained BMDMs were quantified by flow cytometry.

[1] = tested on: LPS-induced septic shock in Cmpk2^∆DMye mice; experiment: LPS-induced septic shock in myeloid-specific Cmpk2-deficient mice; type: in vivo, mouse; settings: DP 40 mg/kg, LPS 20 mg/kg, 72 h
Protocol: The C57BL/6J mice used in the studies were obtained from the Model Animal Research Center of Shanghai University of Traditional Chinese Medicine. All animals were housed under a 12-hr light/dark cycle at 22-24°C with unrestricted access to food and water for the duration of the experiment except during fasting tests. Myeloid-specific Cmpk2-deficient (Cmpk2^DMye) mice were donated by Prof. Huazhang An from Shandong Provincial Key Laboratory for Rheumatic Disease and Translational Medicine. All animal experiments were approved by the Regional Ethics Committee of Shanghai University of Traditional Chinese Medicine.
Sepsis was induced by intraperitoneal injection of 8- to 12-week-old gender-matched wild-type mice with LPS (E. coli O111:B4, Sigma-Aldrich) at 20 mg per kg body weight. Mouse survival was monitored every 1 h after injection for a total of 72 h. In a separate experiment, mice were treated with the same dose of LPS, and immune sera were collected 6 h post injection. Then, the abdominal cavity was washed with PBS. The levels of IL-1β and TNF-α in serum and peritoneal lavage ﬂuid were determined by ELISA. Then, the livers, kidneys and lungs were immediately removed and washed in ice-cold PBS. They were fixed with 4% paraformaldehyde, which was used for hematoxylin-eosin (H&E), Masson staining and Sirius red staining.

CMPK2 mutant at K282 = experiment: ADP-GLO kinase activity of CMPK2 K282 mutant; type: biochemical, human
Protocol: as §1
CMPK2 activity was measured by the ADP‐GLO kinase assay according to the guidelines specified in the manufacturer's instructions. In the activity assay, the amount of ADP formed in the CMPK2 reaction was equal to the ATP consumption and proportional to the increase in luminescence generated in the luciferase reaction, which is the experimental principle shown in Figure 1I.

How did the CMPK2 activity (CMPK2; 1 mM DP) turn out when `COc1c2ccc(-c3ccccc3)oc-2cc(=O)c1C` [compound 73, Dracohodin perochlorate] was run?
Its CMPK2 activity is “completely inhibited”.

And the IC50 (CMPK2; kinase activity assay, experimental triplicates, read-out: IC50 with respect to CMPK2)?
Its IC50 is 1.34 µM.

And the inhibition at 10 µM (CMPK2; read-out: CMPK2 inhibition)?
Its inhibition at 10 µM is greater than 50%.

And the “binding (Kd by MST)” value (CMPK2^Lys265 protein)?
The value was “no binding”.

And the “binding (Kd by MST)” value (CMPK2^Lys320 protein)?
Its value is “no binding”.

And the mitochondrial membrane potential (BMDMs)?
Its mitochondrial membrane potential is “significantly reversed”.

And the mtROS production (BMDMs)?
The mtROS production was “inhibited”.

What about the survival rate [1] of the same molecule?
Its survival rate is “did not further improve”.

And the “kinase activity of the mutant at K282” value (CMPK2 mutant at K282)?
Its value is “slight inhibitory effect”.
